Test: xn = mol fraction of the nth substance listed
Conditions: Liquid, Vibrating tube method, x1 = 0.4891

Cc1cccc(O)c1 [3-methylphenol] + Cc1ccccc1O
Conditions | mass density [kg/m3]
313.19 K, 103.35 kPa | 1023.8
313.19 K, 206.8 kPa | 1024.3
313.19 K, 308.94 kPa | 1024.9
313.19 K, 406.72 kPa | 1025.5
313.19 K, 509.16 kPa | 1026
313.19 K, 609.17 kPa | 1026.6
313.19 K, 710.69 kPa | 1027.1
313.19 K, 813.34 kPa | 1027.7
313.19 K, 912.33 kPa | 1028.3
313.19 K, 1014.1 kPa | 1028.8
313.19 K, 1115.4 kPa | 1029.3
313.19 K, 1219.9 kPa | 1029.9
313.19 K, 1317.7 kPa | 1030.4
313.19 K, 1421.7 kPa | 1031
313.19 K, 1522.3 kPa | 1031.5
313.19 K, 1625.4 kPa | 1032.1
313.19 K, 1723.2 kPa | 1032.6
313.19 K, 1824.4 kPa | 1033.1
313.19 K, 1926.4 kPa | 1033.6
313.19 K, 2026.8 kPa | 1034.1
313.19 K, 2129.3 kPa | 1034.7
313.19 K, 2229.4 kPa | 1035.2
313.19 K, 2333 kPa | 1035.7
313.19 K, 2433.2 kPa | 1036.2
313.19 K, 2532.9 kPa | 1036.7
323.14 K, 101.12 kPa | 1015.4
323.14 K, 206.5 kPa | 1016
323.14 K, 310.87 kPa | 1016.6
323.14 K, 408.14 kPa | 1017.1
323.14 K, 510.78 kPa | 1017.8
323.14 K, 609.67 kPa | 1018.3
323.14 K, 712.01 kPa | 1018.9
323.14 K, 812.42 kPa | 1019.5
323.14 K, 916.79 kPa | 1020.1
323.14 K, 1012.2 kPa | 1020.6
323.14 K, 1115.9 kPa | 1021.2
323.14 K, 1217.9 kPa | 1021.8
323.14 K, 1321.1 kPa | 1022.4
323.14 K, 1420.2 kPa | 1022.9
323.14 K, 1520.1 kPa | 1023.5
323.14 K, 1622.5 kPa | 1024
323.14 K, 1723.3 kPa | 1024.6
323.14 K, 1823.7 kPa | 1025.1
323.14 K, 1926.1 kPa | 1025.6
323.14 K, 2028 kPa | 1026.2
323.14 K, 2128.7 kPa | 1026.7
323.14 K, 2232.2 kPa | 1027.3
323.14 K, 2331 kPa | 1027.8
323.14 K, 2434.8 kPa | 1028.4
323.14 K, 2533.2 kPa | 1028.9
333.08 K, 104.06 kPa | 1007
333.08 K, 209.13 kPa | 1007.6
333.08 K, 305.29 kPa | 1008.2
333.08 K, 408.54 kPa | 1008.8
333.08 K, 507.94 kPa | 1009.4
333.08 K, 610.79 kPa | 1010.1
333.08 K, 708.67 kPa | 1010.6
333.08 K, 812.42 kPa | 1011.3
333.08 K, 913.04 kPa | 1011.9
333.08 K, 1015.7 kPa | 1012.5
333.08 K, 1115.2 kPa | 1013
333.08 K, 1217.7 kPa | 1013.7
333.08 K, 1318 kPa | 1014.2
333.08 K, 1419 kPa | 1014.8
333.08 K, 1520.9 kPa | 1015.4
333.08 K, 1624.9 kPa | 1016
333.08 K, 1724.2 kPa | 1016.6
333.08 K, 1824.2 kPa | 1017.1
333.08 K, 1925.9 kPa | 1017.7
333.08 K, 2031 kPa | 1018.3
333.08 K, 2132.9 kPa | 1018.9
333.08 K, 2232.5 kPa | 1019.4
333.08 K, 2336 kPa | 1020
333.08 K, 2438 kPa | 1020.6
333.08 K, 2536.6 kPa | 1021.1
343.04 K, 103.66 kPa | 998.4
343.04 K, 208.53 kPa | 999
343.04 K, 305.8 kPa | 999.7
343.04 K, 406.72 kPa | 1000.3
343.04 K, 510.78 kPa | 1001
343.04 K, 609.67 kPa | 1001.6
343.04 K, 711.4 kPa | 1002.3
343.04 K, 812.12 kPa | 1002.9
343.04 K, 912.13 kPa | 1003.5
343.04 K, 1014 kPa | 1004.1
343.04 K, 1115.1 kPa | 1004.8
343.04 K, 1220.8 kPa | 1005.4
343.04 K, 1318.1 kPa | 1006
343.04 K, 1420.7 kPa | 1006.6
343.04 K, 1520.6 kPa | 1007.2
343.04 K, 1621 kPa | 1007.9
343.04 K, 1722.2 kPa | 1008.4
343.04 K, 1824.6 kPa | 1009.1
343.04 K, 1925.9 kPa | 1009.7
343.04 K, 2028.3 kPa | 1010.2
343.04 K, 2130 kPa | 1010.8
343.04 K, 2233.9 kPa | 1011.4
343.04 K, 2330.6 kPa | 1011.9
343.04 K, 2432 kPa | 1012.5
343.04 K, 2536.8 kPa | 1013.1
352.98 K, 105.78 kPa | 990
352.98 K, 204.88 kPa | 990.6
352.98 K, 305.29 kPa | 991.3
352.98 K, 408.64 kPa | 992
352.98 K, 509.16 kPa | 992.6
352.98 K, 610.18 kPa | 993.3
352.98 K, 707.96 kPa | 993.9
352.98 K, 810.8 kPa | 994.7
352.98 K, 913.45 kPa | 995.3
352.98 K, 1013.5 kPa | 996
352.98 K, 1116.7 kPa | 996.6
352.98 K, 1217.9 kPa | 997.2
352.98 K, 1316.1 kPa | 997.9
352.98 K, 1418 kPa | 998.5
352.98 K, 1519.3 kPa | 999.1
352.98 K, 1623.4 kPa | 999.8
352.98 K, 1723.3 kPa | 1000.4
352.98 K, 1821.8 kPa | 1001
352.98 K, 1928 kPa | 1001.7
352.98 K, 2027.3 kPa | 1002.3
352.98 K, 2129.3 kPa | 1002.9
352.98 K, 2237.1 kPa | 1003.5
352.98 K, 2331.9 kPa | 1004.2
352.98 K, 2437.8 kPa | 1004.8
352.98 K, 2536.4 kPa | 1005.4
362.91 K, 106.69 kPa | 981.5
362.91 K, 203.97 kPa | 982.2
362.91 K, 305.9 kPa | 982.9
362.91 K, 407.53 kPa | 983.6
362.91 K, 510.78 kPa | 984.3
362.91 K, 608.36 kPa | 985
362.91 K, 708.57 kPa | 985.7
362.91 K, 811.21 kPa | 986.3
362.91 K, 912.33 kPa | 987
362.91 K, 1013.1 kPa | 987.7
362.91 K, 1114.2 kPa | 988.3
362.91 K, 1215.1 kPa | 989
362.91 K, 1318.3 kPa | 989.7
362.91 K, 1418.7 kPa | 990.3
362.91 K, 1520.8 kPa | 991
362.91 K, 1622.2 kPa | 991.7
362.91 K, 1723.8 kPa | 992.3
362.91 K, 1825.8 kPa | 993
362.91 K, 1926.1 kPa | 993.6
362.91 K, 2030.7 kPa | 994.3
362.91 K, 2128.7 kPa | 994.9
362.91 K, 2230.1 kPa | 995.5
362.91 K, 2332.4 kPa | 996.2
362.91 K, 2434.6 kPa | 996.8
362.91 K, 2536.1 kPa | 997.5

Reference: the NIST ThermoML archive (doi:10.1021/je400055v)
